The values that follow are results of earlier work, collected in patent US8153661B2, “Controlled delivery system” (Durect Corporation, priority 2004, dated 2012).

Regarding `CCCCN1CCCCC1C(=O)Nc1c(C)cccc1C` (stereo not shown) [bupivacaine], the “published estimated toxic plasma concentration ranges” value was 1 to 4 µg/mL.
